Test system: Plasmodium falciparum (strain K1)
Test: In vitro drug susceptibility assay, protozoon C (3[H]-hypoxanthine method)
Type: cell-based
Procedure: Plasmodium falciparum strain K1 and strain 3D7 parasites were cultured according to Trager W and Jensen JB (Science 1976, 193: 673-675). In vitro drug susceptibility assays with the test compounds were carried out according to Korsinczky M et al. (Antimicrobial agents and chemotherapy 2000, 44(8): 2100-2108) and Fivelman QL et al. (Antimicrobial agents and chemotherapy 2004, 48(11): 4097-4102) using a ^3[H]-hypoxanthine radioisotope method. ED50 values were calculated with Msxlfit (IDBS).
The following protozoa were assessed: • A) Trypanosoma cruzi (Tulahuan-LACZ amstigotes in PEM, Lorente SO et al., Antimicrobial agents and chemotherapy 2004, 48(8): 2937-2950; Buckner et al., Infection and Immunity 1999, 67(1): 403-409; Buckner et al., Antimicrobial Agents and Chemotherapy 1996, 40(11): 2592-2597) • B) Trypanosoma brucei rhodesiense (strain STIB900, Lorente SO et al., Antimicrobial agents and chemotherapy 2004, 48(8): 2937-2950; Habtemariam S, BMC Pharmacology 2003, 3:6) • C) Plasmodium falciparum (strain K1, Korsinczky M et al., Antimicrobial agents and chemotherapy 2000, 44(8): 2100-2108; Thaitong S and Beale GH, Trans. R. Soc. Trop. Med. Hyg. 1981, 75: 271-273; Trager W and Jensen JB, Science 1976, 193: 673-675) • D) Plasmodium falciparum (strain 3D7, Mu et al., PLoS Biology 2005, 3(10): e335)

CCCCCCCCCCCCCCCCOP(=O)([O-])OCC[N+]1(C)CCCCC1 [Compound 2, Phosphoric acid 2-(1-methyl-piperidin-1-yl)-ethyl ester hexadecyl ester]
ED50 (µg/mL): 19,36 µg/mL

Reference: patent EP1800684A1, “Novel alkyl phospholipid derivatives and uses thereof” (Zentaris GmbH, priority 2005, dated 2007)
